Reference: ChEMBL document CHEMBL1201862, “PubChem BioAssay data set” (2004)
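Five concentrations, 48 hours, 96-well plates. GI50: concentration for 50% inhibition of growth.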 Activity calls are given as the source filed them. Rule as the data show it: active = GI50 up to about 1.1 µM and inactive = higher.

Assays:
Test in all cases: growth of human tumour cells (NCI), 48 h
[1] = test system: OVCAR-5
[2] = test system: A498
[3] = test system: UACC-62
[4] = test system: CAKI-1
[5] = test system: KM12
[6] = test system: COLO 205
[7] = test system: HCT-116
[8] = test system: SK-MEL-5
[9] = test system: SNB-19
[10] = test system: RXF 393
[11] = test system: Hs-578T
[12] = test system: PC-3
[13] = test system: MDA-MB-435
[14] = test system: LOX IMVI
[15] = test system: CCRF-CEM
[16] = test system: DU-145
[17] = test system: RPMI-8226
[18] = test system: M14
[19] = test system: SF-268
[20] = test system: UACC-257
[21] = test system: SK-MEL-28
[22] = test system: HOP-92
[23] = test system: OVCAR-4
[24] = test system: MCF7
[25] = test system: SW-620
[26] = test system: A549
[27] = test system: K562
[28] = test system: IGROV-1
[29] = test system: MDA-N
[30] = test system: SNB-75
[31] = test system: ACHN
[32] = test system: OVCAR-8
[33] = test system: 786-0
[34] = test system: NCI-H460
[35] = test system: NCI-H522
[36] = test system: MOLT-4
[37] = test system: HL-60
[38] = test system: TK-10
[39] = test system: SK-OV-3
[40] = test system: EKVX
[41] = test system: MDA-MB-231
[42] = test system: SR
[43] = test system: HOP-62
[44] = test system: HT-29
[45] = test system: NCI/ADR-RES
[46] = test system: NCI-H23
[47] = test system: T47D
[48] = test system: NCI-H226
[49] = test system: SF-539
[50] = test system: SN12C
[51] = test system: SF-295
[52] = test system: UO-31
[53] = test system: Malme-3M
[54] = test system: OVCAR-3
[55] = test system: SK-MEL-2
[56] = test system: U-251
[57] = test system: HCT-15
[58] = test system: BT-549
[59] = test system: HCC 2998

COC(=O)CCn1cnc2c(SC)ncnc21
GI50 [1]: > 100 µM (inactive)
GI50 [2]: > 100 µM (inactive)
GI50 [3]: > 100 µM (inactive)
GI50 [4]: > 100 µM (inactive)
GI50 [5]: > 100 µM (inactive)
GI50 [6]: > 100 µM (inactive)
GI50 [7]: > 100 µM (inactive)
GI50 [8]: > 100 µM (inactive)
GI50 [9]: > 100 µM (inactive)
GI50 [10]: > 100 µM (inactive)
GI50 [11]: > 100 µM (inactive)
GI50 [12]: > 100 µM (inactive)
GI50 [13]: > 100 µM (inactive)
GI50 [14]: > 100 µM (inactive)
GI50 [15]: > 100 µM (inactive)
GI50 [16]: > 100 µM (inactive)
GI50 [17]: > 100 µM (inactive)
GI50 [18]: > 100 µM (inactive)
GI50 [19]: > 100 µM (inactive)
GI50 [20]: > 100 µM (inactive)
GI50 [21]: > 100 µM (inactive)
GI50 [22]: > 100 µM (inactive)
GI50 [23]: > 100 µM (inactive)
GI50 [24]: > 100 µM (inactive)
GI50 [25]: > 100 µM (inactive)
GI50 [26]: > 100 µM (inactive)
GI50 [27]: > 100 µM (inactive)
GI50 [28]: > 100 µM (inactive)
GI50 [29]: > 100 µM (inactive)
GI50 [30]: > 100 µM (inactive)
GI50 [31]: > 100 µM (inactive)
GI50 [32]: > 100 µM (inactive)
GI50 [33]: > 100 µM (inactive)
GI50 [34]: > 100 µM (inactive)
GI50 [35]: > 100 µM (inactive)
GI50 [36]: > 100 µM (inactive)
GI50 [37]: > 100 µM (inactive)
GI50 [38]: > 100 µM (inactive)
GI50 [39]: > 100 µM (inactive)
GI50 [40]: > 100 µM (inactive)
GI50 [41]: > 100 µM (inactive)
GI50 [42]: > 100 µM (inactive)
GI50 [43]: > 100 µM (inactive)
GI50 [44]: > 100 µM (inactive)
GI50 [45]: > 100 µM (inactive)
GI50 [46]: > 100 µM (inactive)
GI50 [47]: > 100 µM (inactive)
GI50 [48]: > 100 µM (inactive)
GI50 [49]: > 100 µM (inactive)
GI50 [50]: > 100 µM (inactive)
GI50 [51]: > 100 µM (inactive)
GI50 [52]: > 100 µM (inactive)
GI50 [53]: > 100 µM (inactive)
GI50 [54]: > 100 µM (inactive)

COC(=O)N[C@@H]1C[C@H]2CC[C@]1(O[Si](C(C)C)(C(C)C)C(C)C)C(=O)C2
GI50 [1]: 18.5 µM (inactive)
GI50 [55]: 17.4 µM (inactive)
GI50 [2]: 21.4 µM (inactive)
GI50 [3]: 15.6 µM (inactive)
GI50 [4]: 23.9 µM (inactive)
GI50 [5]: 18.2 µM (inactive)
GI50 [6]: 34.6 µM (inactive)
GI50 [7]: 18.5 µM (inactive)
GI50 [8]: 16.4 µM (inactive)
GI50 [9]: 18.1 µM (inactive)
GI50 [11]: 10.3 µM (inactive)
GI50 [12]: 12.9 µM (inactive)
GI50 [56]: > 10 µM (inactive)
GI50 [13]: 17.9 µM (inactive)
GI50 [15]: 18 µM (inactive)
GI50 [16]: > 100 µM (inactive)
GI50 [17]: 15.8 µM (inactive)
GI50 [18]: 18.5 µM (inactive)
GI50 [19]: 12.9 µM (inactive)
GI50 [20]: 11.8 µM (inactive)
GI50 [21]: 14.6 µM (inactive)
GI50 [22]: 17.5 µM (inactive)
GI50 [23]: 14.5 µM (inactive)
GI50 [24]: 21.1 µM (inactive)
GI50 [25]: 27.7 µM (inactive)
GI50 [26]: 14.3 µM (inactive)
GI50 [27]: > 100 µM (inactive)
GI50 [28]: 13.6 µM (inactive)
GI50 [29]: 21.9 µM (inactive)
GI50 [30]: 20 µM (inactive)
GI50 [31]: 18.4 µM (inactive)
GI50 [32]: 23.1 µM (inactive)
GI50 [33]: 17.9 µM (inactive)
GI50 [34]: 20.7 µM (inactive)
GI50 [35]: 8.59 µM (inactive)
GI50 [36]: 24.3 µM (inactive)
GI50 [37]: 16.9 µM (inactive)
GI50 [38]: 14.7 µM (inactive)
GI50 [39]: 21.3 µM (inactive)
GI50 [57]: 17.8 µM
GI50 [40]: 15.4 µM (inactive)
GI50 [41]: 20.5 µM (inactive)
GI50 [42]: 6.93 µM (inactive)
GI50 [43]: 21.4 µM (inactive)
GI50 [44]: 19.1 µM (inactive)
GI50 [45]: 14.8 µM (inactive)
GI50 [46]: 17.1 µM (inactive)
GI50 [47]: 19 µM (inactive)
GI50 [48]: 14.2 µM (inactive)
GI50 [50]: 33.5 µM (inactive)
GI50 [51]: 14.7 µM (inactive)
GI50 [52]: 14.1 µM (inactive)
GI50 [54]: 17.7 µM (inactive)

O=c1c2ccccc2[nH]c2c(Cl)cc(Cl)c(NC3CCCCC3)c12
GI50 [1]: 20.1 µM (inactive)
GI50 [55]: 16.8 µM (inactive)
GI50 [2]: 19.4 µM (inactive)
GI50 [3]: 16.6 µM (inactive)
GI50 [4]: 31.5 µM (inactive)
GI50 [5]: 14.8 µM (inactive)
GI50 [6]: 31.8 µM (inactive)
GI50 [7]: 38.5 µM (inactive)
GI50 [8]: 36.3 µM (inactive)
GI50 [9]: 13.2 µM (inactive)
GI50 [12]: 22.8 µM (inactive)
GI50 [56]: 16.7 µM (inactive)
GI50 [13]: 16.9 µM (inactive)
GI50 [14]: 36.5 µM (inactive)
GI50 [15]: > 10 µM (inactive)
GI50 [58]: 27.5 µM (inactive)
GI50 [17]: 28.3 µM (inactive)
GI50 [18]: 18.6 µM (inactive)
GI50 [20]: 23.6 µM (inactive)
GI50 [21]: 27 µM (inactive)
GI50 [23]: 41.2 µM (inactive)
GI50 [24]: 18.7 µM (inactive)
GI50 [25]: 22.6 µM (inactive)
GI50 [26]: 29.9 µM (inactive)
GI50 [27]: 22.4 µM (inactive)
GI50 [59]: 25.1 µM (inactive)
GI50 [28]: 18.2 µM (inactive)
GI50 [29]: 33.3 µM (inactive)
GI50 [30]: 27.2 µM (inactive)
GI50 [31]: 15.6 µM (inactive)
GI50 [32]: 20.7 µM (inactive)
GI50 [33]: 31.3 µM (inactive)
GI50 [35]: 20.1 µM (inactive)
GI50 [36]: 23 µM (inactive)
GI50 [37]: 18.2 µM (inactive)
GI50 [38]: 22.2 µM (inactive)
GI50 [39]: 32.2 µM (inactive)
GI50 [57]: 30.1 µM
GI50 [40]: 23 µM (inactive)
GI50 [41]: 29 µM (inactive)
GI50 [42]: 12 µM (inactive)
GI50 [43]: 20.7 µM (inactive)
GI50 [44]: 16.3 µM (inactive)
GI50 [45]: 18.5 µM (inactive)
GI50 [46]: 17 µM (inactive)
GI50 [47]: 31.1 µM (inactive)
GI50 [48]: 21.6 µM (inactive)
GI50 [49]: 23.2 µM (inactive)
GI50 [50]: 24.4 µM (inactive)
GI50 [51]: 24.2 µM (inactive)
GI50 [52]: 15.3 µM (inactive)
GI50 [54]: 14.2 µM (inactive)
